# Experiments:
# Type in all cases: cell-based
# A549 = experiment: cells; conditions: Homo sapiens; for LC50 (concentration causing 50% net cell loss): A549, read-out: LC50; for GI50 / IC50 / IC (total growth inhibition): A549, MTT; for IC50: read-out: IC50; for IC (total growth inhibition): read-out: TGI
# In short: (§1)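 In this MTT proliferation screen, formazan formed over 4 h was read at 560 nm against a 690 nm reference. Each line was tested at least three times, and the IC50 was taken as the concentration inhibiting half of the cells.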
# HeLa = experiment: cells; conditions: Homo sapiens; for GI50 / IC50 / IC (total growth inhibition): MTT; for IC50: read-out: IC50; for IC (total growth inhibition): read-out: TGI; for LC50 (concentration causing 50% net cell loss): read-out: LC50
# In short: as §1
# in vitro = conditions: human, LC50
# In short: as §1
# normal FL cells = experiment: cells; conditions: FL normal cells, MTT; for IC50: read-out: IC50; for IC (total growth inhibition): read-out: TGI
# In short: as §1
# [1] = LDH cytotoxic activity assay, HeLa; conditions: human, HeLa cells
# In short: (§2)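 Harvest ~80%-confluent cells with trypsin-EDTA, seed ~5 × 10^3 per well in DMEM or RPMI 1640 containing 10% FBS, then add compound at 25–100 μg/mL (four levels) for 24 h at 37 °C. Finish by reading LDH activity at 492–630 nm.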
# [2] = LDH cytotoxic activity assay, HT29; conditions: human, HT29 cells; for cytotoxicity at 24 h, 25 μg/mL: HT29, 25 μg/mL; for cytotoxicity at 24 h, 50 μg/mL: HT29, 50 μg/mL; for cytotoxicity at 24 h, 75 μg/mL: HT29, 75 μg/mL; for cytotoxicity at 24 h, 100 μg/mL: HT29, 100 μg/mL
# In short: as §2
# [3] = tested on: A. actinomycetemcomitans ATCC 33384; experiment: Microdilution MIC assay; conditions: Aggregatibacter actinomycetemcomitans, ATCC33384; A. actinomycetemcomitans ATCC 33384, 24 h at 35 °C
# Protocol: (§3) MIC values of the compounds against bacterial strains were determined on the basis of a microwell dilution method. […] […]. Growth of microorganisms was determined visually after incubation for 24 h at 35 °C. The lowest concentration at which there was no visible growth (turbidity) was taken as the MIC.
# E. coli ATCC 25922 = experiment: Microdilution MIC assay; conditions: Escherichia coli, ATCC25922; E. coli ATCC 25922, 24 h at 35 °C
# Protocol: as §3
# E. coli ESBL ATCC 35218 = experiment: Microdilution MIC assay; conditions: Escherichia coli, ATCC35218; E. coli ESBL ATCC 35218, 24 h at 35 °C
# Protocol: as §3
# E. faecalis ATCC 29212 = experiment: Microdilution MIC assay; conditions: Enterococcus faecalis, ATCC29212, 24 h, E. faecalis ATCC 29212, 24 h at 35 °C; read-out: MIC
# Protocol: as §3
# [4] = tested on: E. faecalis VRE ATCC 19433; experiment: Microdilution MIC assay; conditions: Enterococcus faecalis; E. faecalis VRE ATCC 19433, 24 h at 35 °C
# Protocol: as §3
# [5] = tested on: P. aeruginosa AGME ATCC 27853; experiment: Microdilution MIC assay; conditions: Pseudomonas aeruginosa, ATCC27853; P. aeruginosa AGME ATCC 27853, 24 h at 35 °C
# Protocol: as §3
# S. aureus ATCC 25923 = experiment: Microdilution MIC assay; conditions: Staphylococcus aureus, ATCC25923, 24 h, S. aureus ATCC 25923, 24 h at 35 °C; read-out: MIC
# Protocol: as §3
# [6] = tested on: S. aureus MRSA ATCC 46300; experiment: Microdilution MIC assay; conditions: Staphylococcus aureus; S. aureus MRSA ATCC 46300, 24 h at 35 °C; read-out: MIC
# Protocol: as §3
# [7] = tested on: S. aureus MSSA ATCC 29213; experiment: Microdilution MIC assay; conditions: Staphylococcus aureus, 24 h, S. aureus MSSA ATCC 29213, 24 h at 35 °C; read-out: MIC
# Protocol: as §3
# S. gordonii NCTC 7870 = experiment: Microdilution MIC assay; conditions: Streptococcus gordonii, NCTC7870; S. gordonii NCTC 7870, 24 h at 35 °C
# Protocol: as §3
# S. mutans ATCC 35668 = experiment: Microdilution MIC assay; conditions: Streptococcus mutans, ATCC35668, 24 h, S. mutans ATCC 35668, 24 h at 35 °C; read-out: MIC
# Protocol: as §3
Compound,LC50 (concentration causing 50% net cell loss) (A549) [µg/mL],GI50 (A549) [µg/mL],IC50 (A549) [µg/mL],IC (total growth inhibition) (A549) [µg/mL],GI50 (HeLa) [µg/mL],IC50 (HeLa) [µg/mL],IC (total growth inhibition) (HeLa) [µg/mL],LC50 (concentration causing 50% net cell loss) (HeLa) [µg/mL],LC50 (concentration causing 50% net cell loss) (in vitro) [µg/mL],GI50 (normal FL cells) [µg/mL],IC50 (normal FL cells) [µg/mL],IC (total growth inhibition) (normal FL cells) [µg/mL],"cytotoxicity at 24 h, 25 μg/mL [1] [%]","cytotoxicity at 24 h, 50 μg/mL [1] [%]","cytotoxicity at 24 h, 75 μg/mL [1] [%]","cytotoxicity at 24 h, 100 μg/mL [1] [%]","cytotoxicity at 24 h, 25 μg/mL [2] [%]","cytotoxicity at 24 h, 50 μg/mL [2] [%]","cytotoxicity at 24 h, 75 μg/mL [2] [%]","cytotoxicity at 24 h, 100 μg/mL [2] [%]",also measured
"Cc1ccccc1-c1cc(-c2ccncc2)nc(N[C@@H]2O[C@H](CO)[C@@H](O)[C@H](O)[C@H]2O)n1 [Compound 3, N-[4-(2-methylphenyl)-6-pyridin-4-ylpyrimidin-2-yl]-β-D-glucopyranosylamine]",> 500,6.49,> 500,> 500,> 500,> 500,> 500,> 500,> 500,6.56,> 500,> 500,16.3,33.4,40.6,56.9,33.1,49.9,71.1,98.7,MIC [3]: 500 µg/mL; MIC (E. coli ATCC 25922): > 1000 µg/mL; MIC (E. coli ESBL ATCC 35218): > 1000 µg/mL; MIC (E. faecalis ATCC 29212): > 1000 µg/mL; MIC [4]: > 1000 µg/mL; MIC [5]: > 1000 µg/mL; MIC (S. aureus ATCC 25923): 500 µg/mL; MIC [6]: 1000 µg/mL; MIC [7]: 1000 µg/mL; MIC (S. gordonii NCTC 7870): 1000 µg/mL; MIC (S. mutans ATCC 35668): 500 µg/mL
"CC(=O)OC[C@H]1O[C@@H](Nc2nc(-c3ccccn3)cc(-c3ccccc3C)n2)[C@H](OC(C)=O)[C@@H](OC(C)=O)[C@@H]1OC(C)=O [Compound 10, 2,3,4,6-tetra-O-acetyl-N-[4-(2-methylphenyl)-6-pyridin-2-ylpyrimidin-2-yl]-β-D-glucopyranosylamine]",> 500,> 500,> 500,> 500,> 500,> 500,> 500,> 500,> 500,22.8,> 500,> 500,16.8,40.7,51.7,58.4,29.4,51.8,64.5,95.2,MIC [3]: > 1000 µg/mL; MIC (E. coli ATCC 25922): > 1000 µg/mL; MIC (E. coli ESBL ATCC 35218): > 1000 µg/mL; MIC (E. faecalis ATCC 29212): 500 µg/mL; MIC [4]: 125 µg/mL; MIC [5]: > 1000 µg/mL; MIC (S. aureus ATCC 25923): > 1000 µg/mL; MIC [6]: 1000 µg/mL; MIC [7]: > 1000 µg/mL; MIC (S. gordonii NCTC 7870): > 1000 µg/mL; MIC (S. mutans ATCC 35668): 500 µg/mL
